Measured values published in patent US9409884B2 (Rigel Pharmaceuticals, Inc., priority 2012, dated 2016).

Biological target: AMPK
Assay: AMPK activation, enzyme-linked immunosorbent assay
Assay type: biochemical
Conditions: Table 14, compounds of Table 7
Method in brief: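 AMPK activation by test compounds was measured by enzyme-linked immunosorbent assay.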

EC50 [nM] | Structure (SMILES)
< 1000 | N#Cc1ccc(O[C@H]2CC[C@@H](NC(=O)c3ccc(C(=O)N4CCC(C(=O)c5ccc(N6CCCC6)cc5)CC4)nc3)CC2)cc1 [Compound 7-112, N-((cis)-4-(4-cyanophenoxy)cyclohexyl)-6-(4-(4-(pyrrolidin-1-yl)benzoyl)piperidine-1-carbonyl)nicotinamide]
< 1000 | COc1ccc(CN2CCC(NC(=O)c3ccc(C(=O)N4CCC(C(=O)c5ccc(N6CCCC6)cc5)CC4)nc3)CC2)cc1F [Compound 7-113, N-(1-(3-fluoro-4-methoxybenzyl)piperidin-4-yl)-6-(4-(4-(pyrrolidin-1-yl)benzoyl)piperidine-1-carbonyl)nicotinamide]
< 1000 | O=C(NC1CCN(Cc2ccc(N3CCCC3)cc2)CC1)c1ccc(C(=O)N2CCC(C(=O)c3ccc(N4CCCC4)cc3)CC2)nc1 [Compound 7-114, 6-(4-(4-(pyrrolidin-1-yl)benzoyl)piperidine-1-carbonyl)-N-(1-(4-(pyrrolidin-1-yl)benzyl)piperidin-4-yl)nicotinamide]
50000 to 100000 | COc1ccc(C(=O)C2CCN(C(=O)c3ccc(C(=O)NC4CCNCC4)cn3)CC2)cc1 [Compound 7-115, 6-(4-(4-methoxybenzoyl)piperidine-1-carbonyl)-N-(piperidin-4-yl)nicotinamide]
< 1000 | CC(C)Oc1ccc(CN2CCC(NC(=O)c3ccc(C(=O)N4CCC(C(=O)c5ccc(N6CCCC6)cc5)CC4)nc3)CC2)cc1 [Compound 7-116, N-(1-(4-isopropoxybenzyl)piperidin-4-yl)-6-(4-(4-(pyrrolidin-1-yl)benzoyl)piperidine-1-carbonyl)nicotinamide]
< 1000 | N#Cc1ccc(CN2CCC(NC(=O)c3ccc(C(=O)N4CCC(C(=O)c5ccc(N6CCCC6)cc5)CC4)nc3)CC2)cc1F [Compound 7-117, N-(1-(4-cyano-3-fluorobenzyl)piperidin-4-yl)-6-(4-(4-(pyrrolidin-1-yl)benzoyl)piperidine-1-carbonyl)nicotinamide]
< 1000 | N#Cc1ccc(CN2CCC(NC(=O)c3ccc(C(=O)N4CCC(Oc5ccc(S(=O)(=O)C(F)(F)F)cc5)CC4)nc3)CC2)cc1 [Compound 7-118, N-(1-(4-cyanobenzyl)piperidin-4-yl)-6-(4-(4-(trifluoromethylsulfonyl)phenoxy)piperidine-1-carbonyl)nicotinamide]
< 1000 | COc1ccc(CN2CCC(NC(=O)c3ccc(C(=O)N4CCC(Oc5ccc(C(=O)C6CC6)cc5)CC4)nc3)CC2)cc1 [Compound 7-120, 6-(4-(4-(cyclopropanecarbonyl)phenoxy)piperidine-1-carbonyl)-N-(1-(4-methoxybenzyl)piperidin-4-yl)nicotinamide]
< 1000 | CS(=O)(=O)c1ccc(OC2CCN(C(=O)c3ccc(C(=O)Nc4ccc(Oc5ccc(C#N)cc5)nc4)cn3)CC2)cc1 [Compound 7-121, N-(6-(4-cyanophenoxy)pyridin-3-yl)-6-(4-(4-(methylsulfonyl)phenoxy)piperidine-1-carbonyl) nicotinamide]
